# Values quoted from earlier work, collected in PubChem BioAssay AID1259409 (Chemical Carcinogenesis Research Information System (CCRIS), 2018).
# Test system: rodent chemically induced tumor inhibition, incidence and multiplicity
# Assay: CCRIS tumor inhibitor studies
# Settings: Carcinogen: DIETHYLNITROSAMINE, 55-18-5, Dose [Inhibitor]: 0, Route [Inhibitor]: ORAL, Species: RAT, Strain/Sex: BD6/FEMALE, Promoter: NONE USED
smiles,measurement,setting,value
O=C1O[C@H]([C@@H](O)CO)C(O)=C1O,"tumour outcome (control, treated, inhibition, significance)","3 G/L IN DRINKING WATER BEGINNING 1 D PRIOR TO FIRST CARCINOGEN DOSE AND CONTINUING TO 2 D POST LAST CARCINOGEN DOSE, Target Tissue: Type of Lesion: LIVER: TUMOR, Dose [Carcinogen]: 80 MG/KG BW 1/WK FOR 8 WK","94%, 90%, 4%, not significant"
same,"tumour outcome (control, treated, inhibition, significance)","3 G/L IN DRINKING WATER FOR DURATION OF STUDY BEGINNING 1 D PRIOR TO FIRST CARCINOGEN DOSE (STUDY DURATION: 6 MO), Target Tissue: Type of Lesion: ESOPHAGUS: TUMOR, Dose [Carcinogen]: 80 MG/KG BW 1/WK FOR 6 WK","14%, 0%, 100%, not significant"
same,"tumour outcome (control, treated, inhibition, significance)","3 G/L IN DRINKING WATER FOR DURATION OF STUDY BEGINNING 1 D PRIOR TO FIRST CARCINOGEN DOSE (STUDY DURATION: 6 MO), Target Tissue: Type of Lesion: ESOPHAGUS: TUMOR, Dose [Carcinogen]: 80 MG/KG BW 1/WK FOR 10 WK","35%, 19%, 46%, not significant"
same,"tumour outcome (control, treated, inhibition, significance)","3 G/L IN DRINKING WATER FOR DURATION OF STUDY BEGINNING 1 D PRIOR TO FIRST CARCINOGEN DOSE (STUDY DURATION: 6 MO), Target Tissue: Type of Lesion: LIVER: TUMOR, Dose [Carcinogen]: 80 MG/KG BW 1/WK FOR 6 WK","52%, 25%, 52%, not significant"
same,"tumour outcome (control, treated, inhibition, significance)","3 G/L IN DRINKING WATER FOR DURATION OF STUDY BEGINNING 1 D PRIOR TO FIRST CARCINOGEN DOSE (STUDY DURATION: 6 MO), Target Tissue: Type of Lesion: LIVER: TUMOR, Dose [Carcinogen]: 80 MG/KG BW 1/WK FOR 10 WK","100%, 96%, 4%, not significant"
same,"tumour outcome (control, treated, inhibition, significance)","3 G/L IN DRINKING WATER FOR DURATION OF STUDY BEGINNING 2 D POST CARCINOGEN TREATMENT (STUDY DURATION: 6 MO), Target Tissue: Type of Lesion: ESOPHAGUS: TUMOR, Dose [Carcinogen]: 80 MG/KG BW 1/WK FOR 10 WK","35%, 10%, 71%, not significant"
same,"tumour outcome (control, treated, inhibition, significance)","10 G/L IN DRINKING WATER BEGINNING 1 D PRIOR TO FIRST CARCINOGEN DOSE AND CONTINUING TO 2 D POST LAST CARCINOGEN DOSE, Target Tissue: Type of Lesion: ESOPHAGUS: TUMOR, Dose [Carcinogen]: 80 MG/KG BW 1/WK FOR 8 WK","31%, 32%, -3%, not significant"
same,"tumour outcome (control, treated, inhibition, significance)","10 G/L IN DRINKING WATER BEGINNING 1 D PRIOR TO FIRST CARCINOGEN DOSE AND CONTINUING TO 2 D POST LAST CARCINOGEN DOSE, Target Tissue: Type of Lesion: LIVER: TUMOR, Dose [Carcinogen]: 80 MG/KG BW 1/WK FOR 8 WK","94%, 95%, -1%, not significant"
same,"tumour outcome (control, treated, inhibition, significance)","10 G/L IN DRINKING WATER FOR DURATION OF STUDY BEGINNING 1 D PRIOR TO FIRST CARCINOGEN DOSE (STUDY DURATION: 6 MO), Target Tissue: Type of Lesion: ESOPHAGUS: TUMOR, Dose [Carcinogen]: 80 MG/KG BW 1/WK FOR 10 WK","35%, 28%, 20%, not significant"
same,"tumour outcome (control, treated, inhibition, significance)","10 G/L IN DRINKING WATER FOR DURATION OF STUDY BEGINNING 1 D PRIOR TO FIRST CARCINOGEN DOSE (STUDY DURATION: 6 MO), Target Tissue: Type of Lesion: LIVER: TUMOR, Dose [Carcinogen]: 80 MG/KG BW 1/WK FOR 10 WK","100%, 88%, 12%, not significant"
same,"tumour outcome (control, treated, inhibition, significance)","10 G/L IN DRINKING WATER FOR DURATION OF STUDY BEGINNING 2 D POST CARCINOGEN TREATMENT (STUDY DURATION: 6 MO), Target Tissue: Type of Lesion: ESOPHAGUS: TUMOR, Dose [Carcinogen]: 80 MG/KG BW 1/WK FOR 10 WK","35%, 33%, 6%, not significant"
same,"tumour outcome (control, treated, inhibition, significance)","10 G/L IN DRINKING WATER FOR DURATION OF STUDY BEGINNING 2 D POST CARCINOGEN TREATMENT (STUDY DURATION: 6 MO), Target Tissue: Type of Lesion: LIVER: TUMOR, Dose [Carcinogen]: 80 MG/KG BW 1/WK FOR 10 WK","100%, 100%, 0%, not significant"
same,"tumour outcome (control, treated, inhibition, significance)","15 G/L IN DRINKING WATER BEGINNING 1 D PRIOR TO FIRST CARCINOGEN DOSE AND CONTINUING TO 2 D POST LAST CARCINOGEN DOSE, Target Tissue: Type of Lesion: ESOPHAGUS: TUMOR, Dose [Carcinogen]: 80 MG/KG BW 1/WK FOR 8 WK","31%, 26%, 16%, not significant"
same,"tumour outcome (control, treated, inhibition, significance)","15 G/L IN DRINKING WATER BEGINNING 1 D PRIOR TO FIRST CARCINOGEN DOSE AND CONTINUING TO 2 D POST LAST CARCINOGEN DOSE, Target Tissue: Type of Lesion: LIVER: TUMOR, Dose [Carcinogen]: 80 MG/KG BW 1/WK FOR 8 WK","94%, 90%, 4%, not significant"
